From the OligoGym collection
Values joined by “and” are separate entries in the source; they are usually repeats but may differ in a detail not shown here. Equal entries are not always repeated. After the bases stand the sugars from the 5' end (letter, count) and the backbone: PS all phosphorothioate, else s phosphorothioate and o phosphodiester by linkage. Methylation of C is not given here. k = constrained ethyl (cEt); d = 2'-deoxy (DNA)

Target: MALAT1
Details: ASO, A431, 0.005 µM

Sequence	target mRNA inhibition
GTTGAGGCAAGTCCTC (sugars k3 d10 k3, PS)	3%
GTTTTATCTAAATACC (sugars k3 d10 k3, PS)	29%
TAAAAGATCGCCTTCA (sugars k3 d10 k3, PS)	41%
TAAACGGGTCATCAAA (sugars k3 d10 k3, PS)	34%
TAAAGTAAATAGGCTA (sugars k3 d10 k3, PS)	21%
TAAATGACGCAATTCT (sugars k3 d10 k3, PS)	8%
TAAATTGGTAGCTTTC (sugars k3 d10 k3, PS)	74% and 80%
TAACAGGCCACTGCCA (sugars k3 d10 k3, PS)	11%
TAACATAGTTCAACCC (sugars k3 d10 k3, PS)	17%
TAACTACCAGCCATTT (sugars k3 d10 k3, PS)	24%
TAACTGATCTGACTTT (sugars k3 d10 k3, PS)	26%
TAACTTCCCCCAGCTT (sugars k3 d10 k3, PS)	20%
TAAGAACTCCACAGCT (sugars k3 d10 k3, PS)	41%
TAAGCCTTCGGTGCCT (sugars k3 d10 k3, PS)	4%
TAATAGAGCTACTTAG (sugars k3 d10 k3, PS)	-16%
TAATAGCAGCGGGATC (sugars k3 d10 k3, PS)	30%
TAATGCTAGTCCTCAG (sugars k3 d10 k3, PS)	38%
TAATTACTCTTGATCT (sugars k3 d10 k3, PS)	48% and 72%
TACAAAAGCTACCATC (sugars k3 d10 k3, PS)	12%
TACAACAAGTAAGCCC (sugars k3 d10 k3, PS)	20%
TACAAGTTACATGTTC (sugars k3 d10 k3, PS)	20%
TACAGAAAGAGTCCTG (sugars k3 d10 k3, PS)	17%
TACCATATCCAAACAA (sugars k3 d10 k3, PS)	11%

Sequence	target mRNA inhibition
TACCTAAACCCACCCC (sugars k3 d10 k3, PS)	6%
TACCTCTTAAAGCACT (sugars k3 d10 k3, PS)	-17%
TACCTTTTACTCTGAT (sugars k3 d10 k3, PS)	42%
TACGCAACTGAGCCCC (sugars k3 d10 k3, PS)	0%
TACTATAGCATCTGTG (sugars k3 d10 k3, PS)	-7%
TACTGCATTTACTTGC (sugars k3 d10 k3, PS)	20%
TACTTGCCAACTTGGA (sugars k3 d10 k3, PS)	51%
TAGAGCTTCTCCATTT (sugars k3 d10 k3, PS)	-15%
TAGATTCACTGAATCC (sugars k3 d10 k3, PS)	-4%
TAGGGAAAAGTGGTTG (sugars k3 d10 k3, PS)	-13%
TATAAGGACAGCTAAG (sugars k3 d10 k3, PS)	21%
TATAATAGAGCTACTT (sugars k3 d10 k3, PS)	15%
TATAGTTTACCACCTT (sugars k3 d10 k3, PS)	14%
TATCTGTTAACAGCTG (sugars k3 d10 k3, PS)	41%
TATGAACCAAAGCTGC (sugars k3 d10 k3, PS)	7%
TATGAGCTTCAGACCT (sugars k3 d10 k3, PS)	-9%
TATGGATCATGCCCAC (sugars k3 d10 k3, PS)	27%
TCAACCTCCGTCATGT (sugars k3 d10 k3, PS)	32%
TCAAGCACCGCTTGAG (sugars k3 d10 k3, PS)	-12% and 8%
TCAAGTGGCCTTTTAA (sugars k3 d10 k3, PS)	-38%
TCAATAGTACTATAGC (sugars k3 d10 k3, PS)	25%
TCAATCCACTTGATCC (sugars k3 d10 k3, PS)	14%
TCAATTAATGCTAGTC (sugars k3 d10 k3, PS)	35%

Sequence	target mRNA inhibition
TCACAAATACGACTGC (sugars k3 d10 k3, PS)	23%
TCACTACTCCAAGCAT (sugars k3 d10 k3, PS)	21%
TCAGGATCATTAAGCC (sugars k3 d10 k3, PS)	37%
TCATAATCTCCCACCT (sugars k3 d10 k3, PS)	10%
TCATCAACAAAAGCCC (sugars k3 d10 k3, PS)	-8%
TCATTAAGCCACTTCC (sugars k3 d10 k3, PS)	19%
TCATTACCCCAACTAA (sugars k3 d10 k3, PS)	17%
TCCAATACTTGTCTTA (sugars k3 d10 k3, PS)	68% and 75%
TCCATGGTTGTCCTAC (sugars k3 d10 k3, PS)	35%
TCCCATAATTGTAGTT (sugars k3 d10 k3, PS)	27%
TCCCCCAACTGCTTGC (sugars k3 d10 k3, PS)	11%
TCCCCCATTATATTAG (sugars k3 d10 k3, PS)	14%
TCCCGTACTTCTGTCT (sugars k3 d10 k3, PS)	41%
TCCCTAACATGCAATA (sugars k3 d10 k3, PS)	30%
TCCCTGTTAAGACCAT (sugars k3 d10 k3, PS)	27%
TCCCTTCAGGATCATT (sugars k3 d10 k3, PS)	10%
TCCGTAACTTTAAATT (sugars k3 d10 k3, PS)	36%
TCCTATCTTCACCACG (sugars k3 d10 k3, PS)	40%
TCCTCTACGCACAACG (sugars k3 d10 k3, PS)	11%
TCCTGAAAGTGCTCAC (sugars k3 d10 k3, PS)	-7%
TCCTGAAATCCCCTAG (sugars k3 d10 k3, PS)	-12%
TCCTGACAAATTATAC (sugars k3 d10 k3, PS)	28%
TCGGTTTAATCTCTTT (sugars k3 d10 k3, PS)	63% and 73%

Sequence	target mRNA inhibition
TCTAAATTGGTTCTGG (sugars k3 d10 k3, PS)	55% and 64%
TCTAACCCAGTTTGTC (sugars k3 d10 k3, PS)	31%
TCTAGGATCCTCTACG (sugars k3 d10 k3, PS)	-24%
TCTAGGCCATCATACT (sugars k3 d10 k3, PS)	40%
TCTCAACCTCCGTCAT (sugars k3 d10 k3, PS)	27%
TCTCTTGAGGGACAGT (sugars k3 d10 k3, PS)	-7%
TCTGAGTGAAGTGTAC (sugars k3 d10 k3, PS)	34%
TCTGATTATCCTGATA (sugars k3 d10 k3, PS)	11%
TCTGTGTTATGCCTGG (sugars k3 d10 k3, PS)	17%
TCTGTTACACCTTGAG (sugars k3 d10 k3, PS)	48% and 64%
TCTGTTATGTTCACCT (sugars k3 d10 k3, PS)	52%
TCTTAGTAACCTATTG (sugars k3 d10 k3, PS)	19%
TCTTCCGCTCAAATCC (sugars k3 d10 k3, PS)	41%
TCTTGAGGGACAGTAG (sugars k3 d10 k3, PS)	-7%
TGAAACCGATTATGGA (sugars k3 d10 k3, PS)	3%
TGAAAGAACTAGTGGT (sugars k3 d10 k3, PS)	23%
TGAACCAAAGCTGCAC (sugars k3 d10 k3, PS)	2%
TGAACCGGAGCAGGAA (sugars k3 d10 k3, PS)	5%
TGACACTTTCCTTGCC (sugars k3 d10 k3, PS)	66% and 46%
TGAGGCAAACGAAACA (sugars k3 d10 k3, PS)	16%
TGAGGCAAGTCCTCAT (sugars k3 d10 k3, PS)	5%
TGAGTATAAGCCTGAA (sugars k3 d10 k3, PS)	25%
TGATCTGCGGCCCCCC (sugars k3 d10 k3, PS)	-50%

Sequence	target mRNA inhibition
TGATTTTAAGGTTGCA (sugars k3 d10 k3, PS)	70% and 67%
TGCAATACTGCAGATG (sugars k3 d10 k3, PS)	20%
TGCAGGGACGGTTGAG (sugars k3 d10 k3, PS)	-22%
TGCAGTCCTGCGACTT (sugars k3 d10 k3, PS)	15%
TGCAGTTTCTATAGTA (sugars k3 d10 k3, PS)	9%
TGCCAACAGCACAGCG (sugars k3 d10 k3, PS)	1%
TGCCATCTACTATTTC (sugars k3 d10 k3, PS)	19%
TGCCTACCGCACAGCT (sugars k3 d10 k3, PS)	19%
TGCGACTTGCTCCCAA (sugars k3 d10 k3, PS)	-13%
TGCGGCCCCCCAGTTG (sugars k3 d10 k3, PS)	-6%
TGCTAGCTTGGCCAAG (sugars k3 d10 k3, PS)	16%
TGCTAGTCCTCAGGAT (sugars k3 d10 k3, PS)	19%
TGCTCCCCGCCTGAGC (sugars k3 d10 k3, PS)	24%
TGCTTATTCCCCAATG (sugars k3 d10 k3, PS)	52%
TGCTTGGGAAATCTTA (sugars k3 d10 k3, PS)	23%
TGGAAACCAGGAGTGC (sugars k3 d10 k3, PS)	14%
TGGAATCCTGTCTGCT (sugars k3 d10 k3, PS)	17%
TGGAGATCAGCTTCCG (sugars k3 d10 k3, PS)	18%
TGGCAAAATGGCGGAC (sugars k3 d10 k3, PS)	19%
TGGCATCAAGGCACTG (sugars k3 d10 k3, PS)	49%
TGGTTTTAATACCCTT (sugars k3 d10 k3, PS)	11%
TGTATTAATCTCTATC (sugars k3 d10 k3, PS)	41%
